In the supplement of paper PMC5908809:

What was measured:
[1] = system: normal NK cells expanded with K562-aAPC; assay: percent inhibition of viability; higher = more inhibition; conditions: 72 h, IL-2 2.5 ng/mL
Procedure: (§1)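 Drug sensitivity and resistance testing on K562-aAPC-expanded normal NK cells: 5 concentrations (10-fold steps over a 10,000-fold range), 72 h at 37 °C, viability by CellTiter-Glo normalised to DMSO and benzethonium chloride controls; DSS from the fitted curve.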

DERL-7 (IL-2 2.5 ng/mL) [2] = assay: as above; conditions: 72 h
IMC-1 (IL-2 20 ng/mL) [3] = assay: as above; conditions: 72 h
KAI3 (IL-2 2.5 ng/mL) [4] = assay: as above; conditions: 72 h
KHYG-1 (IL-2 2.5 ng/mL) [5] = assay: as above; conditions: 72 h
NK-92 (IL-2 2.5 ng/mL) [6] = assay: as above; conditions: 72 h
NK-YS (IL-2 2.5 ng/mL) [7] = assay: as above; conditions: 72 h
NKL (IL-2 2.5 ng/mL) [8] = assay: as above; conditions: 72 h
SNK-6 (IL-2 2.5 ng/mL) [9] = assay: as above; conditions: 72 h
YT (IL-2 2.5 ng/mL) [10] = assay: as above; conditions: 72 h
[11] = system: normal primary NK cells, pool 1 (3 donors) (IL-2 2.5 ng/mL); assay: as above; conditions: 72 h
[12] = system: normal primary NK cells, pool 1 (3 donors), resting (IL-2 0 ng/mL); assay: as above; conditions: 72 h
[13] = system: normal primary NK cells, pool 2 (3 donors) (IL-2 2.5 ng/mL); assay: as above; conditions: 72 h
[14] = system: normal primary NK cells, pool 3 (3 donors) (IL-2 2.5 ng/mL); assay: as above; conditions: 72 h
[15] = system: normal NK cells expanded with K562-aAPC; assay: drug sensitivity score (DSS) (DSS units); higher = more sensitive; extreme values may be limits of the assay; conditions: 72 h; IL-2 2.5 ng/mL
Procedure: as §1

DERL-7 (IL-2 2.5 ng/mL) [16] = assay: as above; conditions: 72 h
IMC-1 (IL-2 20 ng/mL) [17] = assay: as above; conditions: 72 h
KAI3 (IL-2 2.5 ng/mL) [18] = assay: as above; conditions: 72 h
KHYG-1 (IL-2 2.5 ng/mL) [19] = assay: as above; conditions: 72 h
NK-92 (IL-2 2.5 ng/mL) [20] = assay: as above; conditions: 72 h
NK-YS (IL-2 2.5 ng/mL) [21] = assay: as above; conditions: 72 h
NKL (IL-2 2.5 ng/mL) [22] = assay: as above; conditions: 72 h
SNK-6 (IL-2 2.5 ng/mL) [23] = assay: as above; conditions: 72 h
YT (IL-2 2.5 ng/mL) [24] = assay: as above; conditions: 72 h
[25] = system: normal primary NK cells, pool 1 (3 donors) (IL-2 2.5 ng/mL); assay: as above; conditions: 72 h
[26] = system: normal primary NK cells, pool 1 (3 donors), resting (IL-2 0 ng/mL); assay: as above; conditions: 72 h
[27] = system: normal primary NK cells, pool 2 (3 donors) (IL-2 2.5 ng/mL); assay: as above; conditions: 72 h
[28] = system: normal primary NK cells, pool 3 (3 donors) (IL-2 2.5 ng/mL); assay: as above; conditions: 72 h

c1ccc2c(CCNc3ccc(Nc4ccncc4)cc3)c[nH]c2c1 [Serdemetan] (max concentration tested 10000 nM)
percent inhibition of viability [%]
Conditions	1 nM	10 nM	100 nM	1000 nM	10000 nM
DERL-7 (IL-2 2.5 ng/mL) [2]	1.57	3.06	5.72	93	99.8
IMC-1 (IL-2 20 ng/mL) [3]	-3.43	-4.48	-1.24	6.25	86.2
KAI3 (IL-2 2.5 ng/mL) [4]	1.77	-7.13	13.3	71.7	96.4
KHYG-1 (IL-2 2.5 ng/mL) [5]	-4.53	-3.7	-1.91	20.5	94.6
NK-92 (IL-2 2.5 ng/mL) [6]	-2.5	-9.68	-24.1	16.9	89.1
NK-YS (IL-2 2.5 ng/mL) [7]	-3.94	-6.06	-3.31	54.3	93.6
NKL (IL-2 2.5 ng/mL) [8]	-4.48	-6.86	12.5	103	96.3
SNK-6 (IL-2 2.5 ng/mL) [9]	1.74	-8.4	-40.5	2.69	97.8
YT (IL-2 2.5 ng/mL) [10]	-0.01	-0.09	2.11	16.2	89.5
[1]	3.3	-0.88	-3.23	41.7	99.6
[11]	-2.89	-12	-5.86	54.6	98
[12]	-1.96	-20.5	-16.5	78.3	90.8
[13]	-12.5	-4.95	-4.4	34	94.8
[14]	-9.21	-2.68	-1.24	41.2	98.2

Conditions	drug sensitivity score
DERL-7 (IL-2 2.5 ng/mL) [16]	17.7
IMC-1 (IL-2 20 ng/mL) [17]	5.74
KAI3 (IL-2 2.5 ng/mL) [18]	15.1
KHYG-1 (IL-2 2.5 ng/mL) [19]	8.49
NK-92 (IL-2 2.5 ng/mL) [20]	7.67
NK-YS (IL-2 2.5 ng/mL) [21]	11.7
NKL (IL-2 2.5 ng/mL) [22]	20.1
SNK-6 (IL-2 2.5 ng/mL) [23]	5.77
YT (IL-2 2.5 ng/mL) [24]	7.62
[15]	11
[25]	12
[26]	14
[27]	9.95
[28]	10.8
